Data taken from patent publication US20240277683A1, “COMPOUNDS” (CTXT PTY LTD, priority 2018, published 2024).
Like-named read-outs stand apart in the source and are kept apart here.

Columns and labels:
Format in all cases: cell-based
Conditions in all cases: Homo sapiens
[1] = system: acetylation of the histone H3K23 marker in U2OS cells; assay: Histone H3 Lysine 23 Acetylation Biomarker Assay
Method: Compounds may be tested for their ability to inhibit acetylation of the histone H3K23 marker in the following assay:
The cell line U2OS was seeded at a density of 9,000 cells per well in 96 well optical quality tissue culture plates in RPMI medium and 10% foetal bovine serum, and allowed to adhere for 24 hours under standard culture conditions (37 degree Celsius, 5% CO2). At the end of this period the medium was aspirated. […] After incubation for 24 hours, the cells were fixed with 3.7% formaldehyde in PBS for 20 minutes at room temperature, washed (5×5 minutes) with phosphate buffer saline containing 0.1% Tween 20 and blocked with Odyssey blocking buffer (LI-COR, Lincoln, NE) containing 0.1% TritonX100. Anti-H3K23ac specific antibody (Abcam ab177275) in Odyssey blocking buffer containing 0.1% Tween 20 was added and incubated for 16 hours at 4 degree Celsius. […] Plates were washed as previously and read on a PerkinElmer Phenix high content imaging platform.

[2] = system: histone H2A.Z Lysine 7 acetylation marker in U2OS cells; assay: H2A.Z Lysine 7 Acetylation Biomarker Assay
Method: Compounds may be tested for their ability to inhibit the histone H2A.Z Lysine 7 acetylation marker in the following assay:
(§1) The cell line U2OS was seeded at a density of 3,000 cells per well in 384-well optical quality tissue culture plates in RPMI medium supplemented with 10% foetal bovine serum and 10 mM Hepes. The cells were allowed to adhere for 24 hours under standard culture conditions (37 degree Celsius, 5% CO2). At the end of this period the cells were washed with serum free medium. […] Plates were washed and read on a PerkinElmer Opera HCS high content imaging platform.

[3] = system: acetylation of the histone H3 Lysine 14 marker in U2OS cells; assay: Histone H3 Lysine 14 Acetylation Biomarker Assay
Method: Compounds may be tested for their ability to inhibit acetylation of the histone H3 Lysine 14 marker in the following assay:
as §1

[4] = H2A.ZK7ac, U2OS cells, serum free medium, 24 hours, read-out: IC50
[5] = H3K14ac, U2OS cells, serum free medium, 24 hours, read-out: IC50
[6] = H3K23ac, U2OS cells, 24 hours, read-out: IC50

| Structure (SMILES) | IC50 ([1]; U2OS, 24 h) [µM] | IC50 ([2]; U2OS, 24 h) [µM] | IC50 ([3]; U2OS, 24 h) [µM] | IC50 [1, 6] [µM] | further results |
| --- | --- | --- | --- | --- | --- |
| COc1ccccc1-c1cc(NS(=O)(=O)Cc2ccccc2)no1 [Example 2, N-(5-(2-Methoxyphenyl)isoxazol-3-yl)-1-phenylmethanesulfonamide] | > 10 | – | – | – | – |
| COc1ccccc1-c1cc(NS(=O)(=O)c2ccccc2)no1 [Example 3, N-(5-(2-Methoxyphenyl)isoxazol-3-yl)benzenesulfonamide] | > 10 | > 40 | 39.2 | – | – |
| COc1ccccc1-c1cc(NS(=O)(=O)CCc2ccccc2)no1 [Example 4, N-(5-(2-Methoxyphenyl)isoxazol-3-yl)-2-phenylethane-1-sulfonamide] | > 10 | – | – | – | – |
| CCOc1ccccc1-c1cc(NS(=O)(=O)c2c(OC)cccc2OC)no1 [Example 5, N-(5-(2-Ethoxyphenyl)isoxazol-3-yl)-2,6-dimethoxybenzenesulfonamide] | 0.895 | 5.64 | 2.33 | – | – |
| COc1ccc(OC)c(-c2cc(NS(=O)(=O)c3c(OC)cc(-c4ccccc4)cc3OC)no2)c1 [Example 6, N-(5-(2,5-Dimethoxyphenyl)isoxazol-3-yl)-3,5-dimethoxy-[1,1′-biphenyl]-4-sulfonamide] | 0.471 | 1.35 | 0.526 | – | – |
| COc1ccc(OC)c(-c2cc(NS(=O)(=O)c3c(OC)cccc3OC)no2)c1 [Example 7, N-(5-(2,5-Dimethoxyphenyl)isoxazol-3-yl)-2,6-dimethoxybenzenesulfonamide] | 0.0491 | 2.19 | 0.496 | – | – |
| COc1ccc(C2CC2)cc1-c1cc(NS(=O)(=O)c2c(OC)cccc2OC)no1 [Example 8, N-(5-(5-Cyclopropyl-2-methoxyphenyl)isoxazol-3-yl)-2,6-dimethoxybenzenesulfonamide] | 0.0518 | 3.27 | 0.345 | – | – |
| COc1ccccc1-c1cc(NS(=O)(=O)c2c(OC)ccc(-c3ccccc3)c2OC)no1 [Example 10, 2,4-Dimethoxy-N-(5-(2-methoxyphenyl)isoxazol-3-yl)-[1,1′-biphenyl]-3-sulfonamide] | – | > 40 | 4.14 | – | – |
| COc1ccccc1-c1cc(NS(=O)(=O)c2c(OC)cc(-c3ccccc3)cc2OC)no1 [Example 11, 3,5-Dimethoxy-N-(5-(2-methoxyphenyl)isoxazol-3-yl)-[1,1′-biphenyl]-4-sulfonamide] | – | 5.32 | 2.74 | – | – |
| CCc1ccc(OC)c(S(=O)(=O)Nc2cc(-c3ccc(OC)cc3OC)on2)c1 [Example 12, N-(5-(2,4-Dimethoxyphenyl)isoxazol-3-yl)-5-ethyl-2-methoxybenzenesulfonamide] | – | > 40 | > 40 | – | – |
| CCc1ccc(OC)c(S(=O)(=O)Nc2cc(-c3cccc(OC)c3)on2)c1 [Example 13, 5-Ethyl-2-methoxy-N-(5-(3-methoxyphenyl)isoxazol-3-yl)benzenesulfonamide] | – | – | 22.4 | – | – |
| COc1ccc(OC(C)C)c(-c2cc(NS(=O)(=O)c3c(OC)cccc3OC)no2)c1 [Example 14, N-(5-(2-Isopropoxy-5-methoxyphenyl)isoxazol-3-yl)-2,6-dimethoxybenzenesulfonamide] | – | – | – | 0.133 | IC50 [2, 4]: 2.5 µM; IC50 [3, 5]: 0.22 µM |
| COc1ccc(Cl)cc1-c1cc(NS(=O)(=O)c2c(OC)cccc2OC)no1 [Example 15, N-(5-(5-Chloro-2-methoxyphenyl)isoxazol-3-yl)-2,6-dimethoxybenzenesulfonamide] | – | – | – | 0.141 | IC50 [2, 4]: 12.1 µM; IC50 [3, 5]: 0.45 µM |
| CCOc1ccc(OC)cc1-c1cc(NS(=O)(=O)c2c(OC)cccc2OC)no1 [Example 16, N-(5-(2-Ethoxy-5-methoxyphenyl)isoxazol-3-yl)-2,6-dimethoxybenzenesulfonamide] | – | – | – | 0.117 | IC50 [2, 4]: 1.77 µM; IC50 [3, 5]: 0.193 µM |
| COc1ccccc1-c1nnc(NS(=O)(=O)c2c(OC)cccc2OC)s1 [Example 17, 2,6-Dimethoxy-N-(5-(2-methoxyphenyl)-1,3,4-thiadiazol-2-yl)benzenesulfonamide] | – | – | – | 2.26 | IC50 [2, 4]: 29.3 µM; IC50 [3, 5]: 3.2 µM |
| COc1ccc(-c2ncco2)cc1-c1cc(NS(=O)(=O)c2c(OC)cccc2OC)no1 [Example 18, 2,6-Dimethoxy-N-(5-(2-methoxy-5-(oxazol-2-yl)phenyl)isoxazol-3-yl)benzenesulfonamide] | – | – | – | 1.53 | IC50 [2, 4]: 19.9 µM; IC50 [3, 5]: 3.84 µM |
| COc1ccc(CC2CCCCC2)cc1-c1cc(NS(=O)(=O)c2c(OC)cccc2OC)no1 [Example 19, N-(5-(5-(Cyclohexylmethyl)-2-methoxyphenyl)isoxazol-3-yl)-2,6-dimethoxybenzenesulfonamide] | – | – | – | > 10 | IC50 [2, 4]: 5.42 µM |
| COc1cc(Cl)ccc1-c1cc(NS(=O)(=O)c2c(OC)cccc2OC)no1 [Example 21, N-(5-(4-Chloro-2-methoxyphenyl)isoxazol-3-yl)-2,6-dimethoxybenzenesulfonamide] | – | – | – | – | IC50 [2, 4]: > 40 µM; IC50 [3, 5]: > 40 µM |
| COc1cccc(OC)c1S(=O)(=O)Nc1cc(-c2ccccc2OC(F)(F)F)on1 [Example 22, 2,6-Dimethoxy-N-(5-(2-(trifluoromethoxy)phenyl)isoxazol-3-yl)benzenesulfonamide] | 2.13 | 4.77 | 0.762 | – | – |
| COc1ccc(S(=O)(=O)Nc2cc(-c3ccccc3OC)on2)c(OC)c1 [Example 57, 2,4-Dimethoxy-N-(5-(2-methoxyphenyl)isoxazol-3-yl)benzenesulfonamide] | – | – | > 40 | – | – |
| CCc1ccc(OC)c(S(=O)(=O)Nc2cc(-c3ccccc3OC)on2)c1 [Example 58, 5-Ethyl-2-methoxy-N-(5-(2-methoxyphenyl)isoxazol-3-yl)benzenesulfonamide] | – | > 40 | 22.4 | – | – |
| COc1ccc(OC)c(-c2nnc(NS(=O)(=O)c3c(OC)cccc3OC)s2)c1 [Example 70, N-(5-(2,5-Dimethoxyphenyl)-1,3,4-thiadiazol-2-yl)-2,6-dimethoxybenzenesulfonamide] | – | – | – | 0.275 | – |
| COCc1ccc(OC)cc1-c1cc(NS(=O)(=O)c2c(OC)cccc2OC)no1 [Example 71, 2,6-Dimethoxy-N-(5-(5-methoxy-2-(methoxymethyl)phenyl)isoxazol-3-yl)benzenesulfonamide] | – | – | – | 0.0693 | – |
| COc1ccccc1-c1cc(NS(=O)(=O)C2CCCCC2)no1 [Example 102, N-(5-(2-Methoxyphenyl)isoxazol-3-yl)cyclohexanesulfonamide] | – | – | – | – | IC50 [2, 4]: > 40 µM; IC50 [3, 5]: 25.6 µM |
| COc1cccc(OC)c1S(=O)(=O)Nc1nnc(-c2cc(Cl)ccc2OC(C)C)s1 [Example 111, N-(5-(5-Chloro-2-isopropoxyphenyl)-1,3,4-thiadiazol-2-yl)-2,6-dimethoxybenzenesulfonamide] | – | – | – | 0.475 | – |
| COCc1ccc(OC)c(-c2cc(NS(=O)(=O)Cc3ccccc3)no2)c1 [Example 112, N-(5-(2-Methoxy-5-(methoxymethyl)phenyl)isoxazol-3-yl)-1-phenylmethanesulfonamide] | – | – | – | 0.187 | – |
| COc1ccccc1-c1cc(NS(=O)(=O)NC2CCCCC2)no1 [Example 117, N-Cyclohexyl((5-(2-methoxyphenyl)-1,2-oxazol-3-yl)amino)sulfonamide] | 5.56 | – | – | – | – |
| COc1ccc(-c2ccnn2C)cc1-c1cc(NS(=O)(=O)c2c(OC)cccc2OC)no1 [Example 119, 2,6-Dimethoxy-N-(5-(2-methoxy-5-(1-methyl-1H-pyrazol-5-yl)phenyl)isoxazol-3-yl)benzenesulfonamide] | – | – | – | 0.634 | – |
